Test results taken from the supplement of paper PMC11208160.

Assay: recombinant UMI read abundance after kanamycin selection (control-corrected) (log10(CPM+1)); higher = more efficient recombination; extreme values may be limits of the assay; sequences stand for … in AGTGCAGAGAAAATCGGCCAGTTTTCTCTGCCTGCAGTCCGCATGCCGTGGGACCCCTTGGGTTCTAACCTGTTGCCTAGATTTATGCAGCGGACTGCCTTTCTCCCAAAGTGATAAACCGG…AGGTTGGTTTCACT; site = the 11-nt donor
Outline: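 Pooled Escherichia coli screen of donor and donor-binding-loop pairs for the IS621 bridge recombinase. Each pair sits with a 12-nt UMI on a plasmid carrying a promoterless kanamycin gene. The library was co-electroporated with a target plasmid encoding a fixed target and T7-inducible recombinase, then plated with IPTG (0.07 mM) plus kanamycin, or unselected, each in two replicates. Recombinant UMIs were PCR-amplified across the donor–target junction and sequenced. Counts became CPM, averaged over replicates, scaled by control-derived factors and reported as log10(CPM+1).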
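Note: IS621 bridge recombinase in Escherichia coli cells against a fixed T5 target plasmid.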

Going from “TTCTTGACATGGACCGGTTTTCCCGGTAATCCGTATTTGCT (site TGCTTGACTAG)” to “TTCTTGACATGGACCGGTTTTCCCGGTAATCCGTATTTGCT (site TTCTTGACTAG)”, the “recombinant UMI read abundance (log10)” value rises from 0 to 0.68.

Going from “TTGAACACATGGACCGGTTTTCCCGGTAATCCGTATTTGAC (site TTGAACACTGT)” to “TTGAATACATGGACCGGTTTTCCCGGTAATCCGTATTTGCA (site TAGAATACTTG)”, the “recombinant UMI read abundance (log10)” value rises from 0.849 to 1.77.

“TTGAATACATGGACCGGTTTTCCCGGTAATCCGTATTTGCA (site TCGAATACTTG)” and “TTGAATACATGGACCGGTTTTCCCGGTAATCCGTATTTGCA (site TGGAATACTTG)” are the same in “recombinant UMI read abundance (log10)” value: 0 for the first, 0 for the second.

Compared with “TTGAATACATGGACCGGTTTTCCCGGTAATCCGTATTTGCA (site TTGAATACTTG)”, “TTGACAACATGGACCGGTTTTCCCGGTAATCCGTATTTGAC (site TTGACAACTGT)” is higher in “recombinant UMI read abundance (log10)” value: 0.467 for the first, 1.62 for the second.

“TTGACTCCATGGACCGGTTTTCCCGGTAATCCGTATTTGCT (site TTGACTCCTAG)” and “TTGAGCACATGGACCGGTTTTCCCGGTAATCCGTATTTGGA (site TTGAGCACTTC)” are within 0.2 log units of each other in “recombinant UMI read abundance (log10)” value: 0.111 for the first, 0.207 for the second.

“TTGCATGCATGGACCGGTTTTCCCGGTAATCCGTATTTGGT (site ATGCATGCTAC)” and “TTGCATGCATGGACCGGTTTTCCCGGTAATCCGTATTTGGT (site CTGCATGCTAC)” are within 0.2 log units of each other in “recombinant UMI read abundance (log10)” value: 0.00895 for the first, 0.00328 for the second.

First: TTGCATGCATGGACCGGTTTTCCCGGTAATCCGTATTTGGT (site GTGCATGCTAC)
Second: TTGCATGCATGGACCGGTTTTCCCGGTAATCCGTATTTGGT (site TTGCATGCTAC)
The “recombinant UMI read abundance (log10)” value of the first is lower: 0.0185 for the first, 0.317 for the second.

Going from “TTGCGGGCATGGACCGGTTTTCCCGGTAATCCGTATTTGTC (site TTGCGGGCTGA)” to “TTGCTACCATGGACCGGTTTTCCCGGTAATCCGTATTTGAA (site TTGCTACCTTT)”, the “recombinant UMI read abundance (log10)” value falls from 2.15 to 0.0119.

First: TTGCTCACATGGACCGGTTTTCCCGGTAATCCGTATTTGTC (site TTGCTCACTGA)
Second: TTGCTGACATGGACCGGTTTTCCCGGTAATCCGTATTTGCG (site TTGCTGACTCG)
The “recombinant UMI read abundance (log10)” value of the first is higher: 2.25 for the first, 1.33 for the second.

“TTGCTGACATGGACCGGTTTTCCCGGTAATCCGTATTTGTG (site TTGCTGACTCA)” and “TTGGAAACATGGACCGGTTTTCCCGGTAATCCGTATTTGCA (site ATGGAAACTTG)” are within 0.2 log units of each other in “recombinant UMI read abundance (log10)” value: 0.12 for the first, 0 for the second.

Going from “TTGGAAACATGGACCGGTTTTCCCGGTAATCCGTATTTGCA (site CTGGAAACTTG)” to “TTGGAAACATGGACCGGTTTTCCCGGTAATCCGTATTTGCA (site GTGGAAACTTG)”, the “recombinant UMI read abundance (log10)” value falls from 1.21 to 0.342.

Going from “TTGGAAACATGGACCGGTTTTCCCGGTAATCCGTATTTGCA (site TTGGAAACTTG)” to “TTGGAGCCATGGACCGGTTTTCCCGGTAATCCGTATTTGAC (site TTGGAGCCTGT)”, the “recombinant UMI read abundance (log10)” value falls from 1.86 to 1.31.

First: TTGGCCACATGGACCGGTTTTCCCGGTAATCCGTATTTGGA (site TTGGCCACTTC)
Second: TTGGCGTCATGGACCGGTTTTCCCGGTAATCCGTATTTGTC (site TTGGCGTCTGA)
The “recombinant UMI read abundance (log10)” value of the first is lower: 0.146 for the first, 1.13 for the second.

Compared with “TTGGTATCATGGACCGGTTTTCCCGGTAATCCGTATTTGAC (site TTGGTATCTGT)”, “TTGTACCCATGGACCGGTTTTCCCGGTAATCCGTATTTGGT (site TTGTACCCTAC)” is lower in “recombinant UMI read abundance (log10)” value: 2.59 for the first, 0.111 for the second.

First: TTGTATACATGGACCGGTTTTCCCGGTAATCCGTATTTGGG (site TTGTATACTCC)
Second: TTGTGATCATGGACCGGTTTTCCCGGTAATCCGTATTTGTG (site TTGTGATCTCA)
The “recombinant UMI read abundance (log10)” value of the first is lower: 0.00305 for the first, 1.25 for the second.

Compared with “TTGTGGACATGGACCGGTTTTCCCGGTAATCCGTATTTGTA (site TTGTGGACTTA)”, “TTTAAAGCATGGACCGGTTTTCCCGGTAATCCGTATTTGAC (site TTTAAAGCTGT)” is lower in “recombinant UMI read abundance (log10)” value: 1.6 for the first, 0 for the second.

Going from “TTTAACCCATGGACCGGTTTTCCCGGTAATCCGTATTTGAA (site TTTAACCCTTT)” to “TTTAACTCATGGACCGGTTTTCCCGGTAATCCGTATTTGAA (site TTTAACTCTTT)”, the “recombinant UMI read abundance (log10)” value rises from 0.00893 to 0.34.

“TTTAATACATGGACCGGTTTTCCCGGTAATCCGTATTTGAA (site TTTAATACTTT)” and “TTTACGTCATGGACCGGTTTTCCCGGTAATCCGTATTTGAT (site TTTACGTCTAT)” are within 0.2 log units of each other in “recombinant UMI read abundance (log10)” value: 0.00702 for the first, 0.00816 for the second.

First: TTTAGACCATGGACCGGTTTTCCCGGTAATCCGTATTTGTC (site TTTAGACCTGA)
Second: TTTATCCCATGGACCGGTTTTCCCGGTAATCCGTATTTGAT (site TTTATCCCTAT)
The “recombinant UMI read abundance (log10)” value of the first is lower: 0 for the first, 0.263 for the second.

“TTTCAGGCATGGACCGGTTTTCCCGGTAATCCGTATTTGAG (site TTTCAGGCTCT)” and “TTTCTAGCATGGACCGGTTTTCCCGGTAATCCGTATTTGGT (site TTTCTAGCTAC)” are within 0.2 log units of each other in “recombinant UMI read abundance (log10)” value: 0.155 for the first, 0.0163 for the second.

Compared with “TTTCTCACATGGACCGGTTTTCCCGGTAATCCGTATTTGCC (site TTTCTCACTGG)”, “TTTCTGTCATGGACCGGTTTTCCCGGTAATCCGTATTTGTA (site TTTCTGTCTTA)” is lower in “recombinant UMI read abundance (log10)” value: 0.843 for the first, 0 for the second.

Compared with “TTTGAAGCATGGACCGGTTTTCCCGGTAATCCGTATTTGCG (site TTTGAAGCTCG)”, “TTTGCAGCATGGACCGGTTTTCCCGGTAATCCGTATTTGCT (site TTTGCAGCTAG)” is lower in “recombinant UMI read abundance (log10)” value: 1.11 for the first, 0.00605 for the second.

“TTTGCAGCATGGACCGGTTTTCCCGGTAATCCGTATTTGCT (site TTTGCCGCTAG)” and “TTTGCAGCATGGACCGGTTTTCCCGGTAATCCGTATTTGCT (site TTTGCGGCTAG)” are within 0.2 log units of each other in “recombinant UMI read abundance (log10)” value: 0.0123 for the first, 0.00881 for the second.

“TTTGCAGCATGGACCGGTTTTCCCGGTAATCCGTATTTGCT (site TTTGCTGCTAG)” and “TTTGCGCCATGGACCGGTTTTCCCGGTAATCCGTATTTGCT (site TTTGCGACTAG)” are within 0.2 log units of each other in “recombinant UMI read abundance (log10)” value: 0.00602 for the first, 0.0112 for the second.

“TTTGCGCCATGGACCGGTTTTCCCGGTAATCCGTATTTGCT (site TTTGCGCCTAG)” and “TTTGCGCCATGGACCGGTTTTCCCGGTAATCCGTATTTGCT (site TTTGCGGCTAG)” are within 0.2 log units of each other in “recombinant UMI read abundance (log10)” value: 0.00475 for the first, 0 for the second.

“TTTGCGCCATGGACCGGTTTTCCCGGTAATCCGTATTTGCT (site TTTGCGTCTAG)” and “TTTGCGGCATGGACCGGTTTTCCCGGTAATCCGTATTTGCA (site TTTGCGGCTAG)” are within 0.2 log units of each other in “recombinant UMI read abundance (log10)” value: 0.0103 for the first, 0.0111 for the second.
